# Measured values as given in patent US8642656B2, “Calixarene-based peptide conformation mimetics, methods of use, and methods of making” (priority 2004, dated 2014).
# Entries after “also recorded” stand apart in the source; their conditions may differ. Like-named read-outs stand apart in the source and are kept apart here.
# Key:
# [1] = Toxicity assays in tumor-bearing mice: behavior, body weight, organ morphology; assay type: in vivo; conditions: for signs of toxicity (behavior, weight gain, hematocrit), in words: all in vivo tumor experiments
# Protocol: (§1) As an indirect measurement of general toxicity, body weights of mice were monitored twice weekly, using a digital balance (Ohaus Florham, N.J.). To determine hematocrit levels, blood samples were extracted by tail vein bleedings one day after terminating treatment, and blood was collected in heparinized micro-hematocrit capillary lubes (Fisher Pittsburgh, Pa.). Samples were spun down for 10 minutes in a micro-hematocrit centrifuge (Clay-Adams; NY), and the amount of hematocrit was determined using an international microcapillary reader (IEC; Needham, Mass.).
# [2] = system: MA148 human ovarian carcinoma; test: Proliferation of MA148 tumor cells; assay type: cell-based; conditions: read-out: IC50 against MA148 tumor cells
# [3] = Hematocrit levels, first (MA148) study; assay type: in vivo, mice; conditions: last day of treatment, vehicle 47±5.7
# Protocol: as §1
# LPS from K. pneumoniae = test: LPS neutralization assay (Limulus amoebocyte lysate, QCL-1000); assay type: biochemical, Klebsiella pneumoniae; conditions: read-out: IC50 values (μM) for LPS binding, Klebsiella
# How it was run: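 LPS (0.04 units per strain) is mixed with compound and Limulus amoebocyte lysate. Proenzyme activation is then followed by chromogenic substrate cleavage and pNA absorbance at 405-410 nm. Dose-response curves are fit sigmoidally to give IC50.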
# B16F10 tumor cells = test: Proliferation of B16F10 tumor cells; assay type: cell-based, murine
# B16F10 tumor = test: TUNEL staining for total cell apoptosis, B16F10 tumors; assay type: in vivo, mice; conditions: B16F10, 10 mg/kg; mean ± standard error, 20 images
# Protocol: (§2) To assess the extent of total cell apoptosis, tumor tissue sections were stained by using the TUNEL (terminal deoxyribonucleotidyl transferase-mediated dUTP-nick-end labeling) assay, which was performed according to the manufacturer's instructions (In situ cell death detection kit, fluorescein; TUNEL, Roche). After 1-hour incubation at room temperature, slides were washed with PBS and immediately imaged using an Olympus BX-60 fluorescence microscope at 200× magnification.
# [4] = system: chorioallantoic membrane (CAM) vasculature; test: Chorioallantoic membrane (CAM) assay; assay type: in vivo, chicken; conditions: 25 μM daily, day 10 to 13
# Protocol: Fertilized Lohman-selected white leghorn eggs were incubated for 3 days at 37° C. and 55% relative humidity and rotated once every hour. On day 3 a rectangular window (1 cm×2 cm) was made in the eggshell. The window was covered with tape to prevent dehydration. The window allowed undisturbed observation of the developing vasculature of the CAM. On day 7 a silicon ring (10 mm diameter) was placed on the CAM to allow local drug administration within the ring. Compounds were applied daily in aliquots of 65 μl (25 μM) from day 10 to day 13. On day 14 the CAMs were photographed.
# MA148 tumor = test: TUNEL staining for total cell apoptosis, MA148 tumors; assay type: in vivo, mice; conditions: mean ± standard error, 20 images
# Protocol: as §2
# LPS from P. aeruginosa = test: LPS neutralization assay (Limulus amoebocyte lysate, QCL-1000); assay type: biochemical, Pseudomonas aeruginosa; conditions: read-out: IC50 values (μM) for LPS binding, P.a.
# How it was run: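 Chromogenic LAL assay: LPS activates a proenzyme that releases p-nitroaniline from a colourless substrate, read at 405–410 nm. Each LPS was used at 0.04 units (0.01 ng P. aeruginosa and E. coli 0111:B4 LPS, 0.03 ng S. typhimurium and S. marcascens LPS). IC50 was fitted from sigmoidal dose-response curves.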
# endothelial cell (EC) = test: EC Proliferation Assay, [3H]thymidine incorporation (Example 36, Table 1); assay type: cell-based; conditions: Table 1 and FIG. 3
# Protocol: Human umbilical vein derived EC(HUVEC) were harvested from normal human umbilical cords by perfusion with 0.125% trypsin/EDTA as described in Groenewegen et al., J. Exp. Med. 164, 131-143 (1986). For determination of quiescent EC phenotype isolated ECs were immediately fixed in 1% paraformaldehyde. Human microvascular ECs (MVECs) were isolated. ECs were cultured in fibronectin coated tissue culture flasks in culture medium (RPMJ-1640 with 20% human serum (HS), supplemented with 2 mM glutamine and 100 U/ml penicillin and 0.1 mg/ml streptomycin).
# EC proliferation was measured using a [^3H]thymidine incorporation assay. ECs were seeded at 5000 cells/well in flatbottomed tissue culture plates and grown for 3 days, in the absence or presence of regulators, in culture medium. During the last 6 hours of the assay, the culture was pulsed with 0.5μ Ci [methyl-^3H]thymidine/well.
# fibroblasts = test: Proliferation of fibroblasts (general cell toxicity check); assay type: cell-based
# bFGF-stimulated HUVEC = test: EC proliferation, [3H]-thymidine incorporation, bFGF-stimulated HUVEC (Example 48); assay type: cell-based, human; conditions: for IC50: bFGF-stimulated HUVEC, highest dose tested 25 μM; for activity as anti-angiogenic agents, ranking in words: library of 23 compounds
# Protocol: Proliferation is expressed as mean counts per minute (cpm) of quadruplicate cultures in three independent experiments (±SEM). […] Human umbilical vein derived EC (HUVEC) were harvested from normal human umbilical cords by perfusion with 0.125% trypsin/EDTA. Harvested HUVECs were cultured in gelatin coated tissue culture flasks and subcultured 1:3 once a week in culture medium (RPM1-1640 with 20% human serum (HS), supplemented with 2 mM glutamine and 100 U/mL penicillin and 0.1 mg/mL streptomycin). Statistical analysis was performed by using the Student's t-test.
molecule,measurement,setting,value
"5,11,17,23-Tetra-tert-butyl-25,27-bis(2-guanidinoethoxy)-26,28-dihydroxy calix[4]arene trifluoroacetic acid salt [Compound 27]",drop of body weights during treatment,"[1]; B16 model, i.p. administration",about 5%
same,"signs of toxicity (behavior, weight gain, hematocrit), in words",[1],did not generally show signs of toxicity
same,IC50,[2],3 µM
same,Hematocrit levels ±SD,[3]; 2.7 mg/kg,46.5±0.7 percentage of red blood cells
same,Hematocrit levels ±SD,[3]; 10 mg/kg,47±4.2 percentage of red blood cells
same,IC50,"LPS from K. pneumoniae; Table 3, errors estimated ±30%",> 5 µM
same,IC50,B16F10 tumor cells; read-out: IC50 against B16F10 tumor cells,10 µM
same,Apoptosis,B16F10 tumor,2357 ± 103 pixel counts per image
same,angiogenesis inhibition in CAM assay (in words),[4],angiogenesis is inhibited
same,Apoptosis,"MA148 tumor; MA148, 2.7 mg/kg",2418 ± 72 pixel counts per image
same,Apoptosis,"MA148 tumor; MA148, 10 mg/kg",2333 ± 173 pixel counts per image
same,IC50,"LPS from P. aeruginosa; Table 3, errors estimated ±30%",> 5 µM
same,antiangiogenic activity (in words),endothelial cell (EC); trifluoroacetic acid salt,excellent antiangiogenic activity; also recorded: exceptional antiangiogenic activity
same,IC50,"fibroblasts; read-out: concentration giving 50% growth inhibition, fibroblasts",~20 µM
same,IC50,bFGF-stimulated HUVEC,8 µM
same,"activity as anti-angiogenic agents, ranking in words",bFGF-stimulated HUVEC,most active as anti-angiogenic agents
CN(C)CCNC(=O)COc1c2cccc1Cc1cccc(c1OCC(=O)NCCN(C)C)Cc1cccc(c1OCC(=O)NCCN(C)C)Cc1cccc(c1OCC(=O)NCCN(C)C)C2 [Compound 40],"signs of toxicity (behavior, weight gain, hematocrit), in words",[1],did not generally show signs of toxicity
same,IC50,[2],1 µM
same,Hematocrit levels ±SD,[3]; 2.4 mg/kg,50±1.4 percentage of red blood cells
same,Hematocrit levels ±SD,[3]; 10 mg/kg,49.5±2.1 percentage of red blood cells
same,IC50,LPS from K. pneumoniae; Table 2,1.5 µM
same,IC50,"LPS from K. pneumoniae; Table 3, errors estimated ±30%",1.5 µM
same,IC50 against B16F10 tumor cells,B16F10 tumor cells,neither demonstrated activity
same,Apoptosis,B16F10 tumor,2807 ± 140 pixel counts per image
same,angiogenesis inhibition in CAM assay (in words),[4],angiogenesis is inhibited
same,Apoptosis,"MA148 tumor; MA148, 2.4 mg/kg",2919 ± 144 pixel counts per image
same,Apoptosis,"MA148 tumor; MA148, 10 mg/kg",2323 ± 171 pixel counts per image
same,IC50,LPS from P. aeruginosa; Table 2,> 5 µM
same,IC50,"LPS from P. aeruginosa; Table 3, errors estimated ±30%",> 5 µM
same,antiangiogenic activity (in words),endothelial cell (EC),exceptional antiangiogenic activity
same,antiangiogenic activity (in words),endothelial cell (EC); listed as KM0118 (40),excellent antiangiogenic activity
same,"concentration giving 50% growth inhibition, fibroblasts",fibroblasts,no delectable effects
same,IC50,bFGF-stimulated HUVEC,2 µM
same,"activity as anti-angiogenic agents, ranking in words",bFGF-stimulated HUVEC,most active as anti-angiogenic agents
